For one test, the target named is Beta-galactosidase (Escherichia coli, UniProt Q8VNN2). Kind of test: Dose response counterscreen for EBI2 assay utilizing the enzyme, b-galactosidase. In kind it is functional.
Test [1] in a line: bead-based luminescence quenchers, dual-tagged ARNT – biochemical, AlphaScreen, cherry-pick, artefact control for ARNT-TACC3 interaction inhibitor project, dose response (AID 651705).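 Further: AlphaScreen bead proximity signal that flags compounds interfering with the detection technology; potency reflects signal decrease which marks the compound as an assay artifact.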 It counts as functional. (In general: Alpha assays give light when donor and acceptor beads are brought close together.)
A short description of test [2]: cells. In kind it is functional.
The target of test [3] is T1, Fructose-bisphosphate aldolase (Mycobacterium tuberculosis, UniProt P9WQA3).
T1 sequence (P9WQA3 whole entry): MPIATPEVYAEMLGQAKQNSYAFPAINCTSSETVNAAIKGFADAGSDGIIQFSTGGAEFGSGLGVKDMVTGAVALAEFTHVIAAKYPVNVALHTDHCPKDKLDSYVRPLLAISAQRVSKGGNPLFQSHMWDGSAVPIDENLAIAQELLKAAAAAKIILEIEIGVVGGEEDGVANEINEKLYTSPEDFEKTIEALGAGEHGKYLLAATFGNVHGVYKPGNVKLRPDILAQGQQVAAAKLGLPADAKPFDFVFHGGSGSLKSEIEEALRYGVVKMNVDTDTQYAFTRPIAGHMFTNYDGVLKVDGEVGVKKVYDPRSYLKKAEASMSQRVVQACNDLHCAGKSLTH
The test can be described thus: Fluorescence-based biochemical high throughput dose response assay for inhibitors of the fructose-bisphosphate aldolase (FBA) of M. tuberculosis. In kind it is functional.

Test [4] has as its target T2, Trace amine-associated receptor 1 (Homo sapiens, UniProt Q96RJ0).
T2 sequence (Q96RJ0 whole entry): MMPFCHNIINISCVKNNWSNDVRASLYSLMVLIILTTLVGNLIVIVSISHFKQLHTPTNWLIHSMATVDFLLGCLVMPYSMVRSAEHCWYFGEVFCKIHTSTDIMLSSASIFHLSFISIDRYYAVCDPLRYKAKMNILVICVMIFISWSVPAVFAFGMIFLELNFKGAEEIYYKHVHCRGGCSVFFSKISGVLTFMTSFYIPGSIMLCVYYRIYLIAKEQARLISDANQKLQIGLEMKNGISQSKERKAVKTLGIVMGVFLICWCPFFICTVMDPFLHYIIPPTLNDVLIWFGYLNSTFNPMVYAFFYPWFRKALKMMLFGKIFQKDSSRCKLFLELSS
The test can be described thus: Fluorescence-based cell-based high throughput dose response assay to identify agonists of the human trace amine associated receptor 1 (TAAR1). In kind it is functional.

Test [5] in a line: cells. It counts as functional, cell-based.
Test [6] in a line: cells. It counts as functional, cell-based. The source holds these as a separate data set.
The target of test [7] is Induced myeloid leukemia cell differentiation protein Mcl-1 (Homo sapiens, UniProt Q07820). In kind it is functional.
Test [8] concerns the target T2, Trace amine-associated receptor 1. Kind of test: Counterscreen for agonists of the human trace amine associated receptor 1 (hTAAR1): Fluorescence-based cell-based high throughput dose response assay to identify hTAAR1 agonist that also desensitize TAAR1 receptor response. It counts as functional. (A counterscreen serves to expose hits that act by an unwanted route or on another target.)

Test [9] in a line: viability of uninfected HEp-2 cells – cell-based, HTS, cytotoxicity control for RSV inhibitor project, dose response (AID 2410). The settings on record: human respiratory syncytial virus. In kind it is functional.
The target in test [10] is T3, Sentrin-specific protease 8 (Homo sapiens, UniProt Q96LD8).
T3 sequence (Q96LD8 whole entry): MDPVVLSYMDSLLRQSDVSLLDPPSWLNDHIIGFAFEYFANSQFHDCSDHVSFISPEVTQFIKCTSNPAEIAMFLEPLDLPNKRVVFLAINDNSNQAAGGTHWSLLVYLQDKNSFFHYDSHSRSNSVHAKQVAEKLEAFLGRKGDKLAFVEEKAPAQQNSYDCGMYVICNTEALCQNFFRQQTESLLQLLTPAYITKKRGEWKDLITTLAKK
The test can be described thus: inhibition of human SENP8 cleavage activity – biochemical, luminescence, SAR follow-up (AID 504501). It counts as functional.

The target of test [11] is T4, Caspase-3 (Homo sapiens, UniProt P42574).
T4 sequence (P42574 whole entry): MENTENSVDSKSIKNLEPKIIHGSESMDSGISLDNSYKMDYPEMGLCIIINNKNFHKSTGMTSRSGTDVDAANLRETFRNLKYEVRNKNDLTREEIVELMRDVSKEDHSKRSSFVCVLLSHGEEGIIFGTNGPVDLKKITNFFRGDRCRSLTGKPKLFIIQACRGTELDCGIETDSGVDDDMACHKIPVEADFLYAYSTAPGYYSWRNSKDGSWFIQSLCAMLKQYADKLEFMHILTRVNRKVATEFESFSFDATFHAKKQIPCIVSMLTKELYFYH
It counts as functional.

A further test addresses Phospholipase A2 (Homo sapiens, UniProt P04054). In kind it is functional.
A further test concerns the target T5, Cysteine protease ATG4B (Homo sapiens, UniProt Q9Y4P1).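 Further: Fluorescence-based dose-response confirmation assay measuring inhibition of ATG4B activity.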
T5 sequence (Q9Y4P1 whole entry): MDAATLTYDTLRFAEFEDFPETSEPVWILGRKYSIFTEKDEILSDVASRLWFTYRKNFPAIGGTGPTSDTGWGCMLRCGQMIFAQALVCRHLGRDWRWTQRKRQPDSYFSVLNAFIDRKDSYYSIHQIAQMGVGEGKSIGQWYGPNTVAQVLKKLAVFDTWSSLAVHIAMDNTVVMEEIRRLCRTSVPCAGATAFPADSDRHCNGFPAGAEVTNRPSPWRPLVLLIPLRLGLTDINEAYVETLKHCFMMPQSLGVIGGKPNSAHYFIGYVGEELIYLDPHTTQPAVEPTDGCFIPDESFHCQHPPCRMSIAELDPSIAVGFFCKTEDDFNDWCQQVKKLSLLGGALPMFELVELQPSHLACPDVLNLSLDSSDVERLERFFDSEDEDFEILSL
In kind it is functional.

Test [12] concerns the target T6, Sentrin-specific protease 7 (Homo sapiens, UniProt Q9BQF6).
T6 sequence (Q9BQF6 whole entry): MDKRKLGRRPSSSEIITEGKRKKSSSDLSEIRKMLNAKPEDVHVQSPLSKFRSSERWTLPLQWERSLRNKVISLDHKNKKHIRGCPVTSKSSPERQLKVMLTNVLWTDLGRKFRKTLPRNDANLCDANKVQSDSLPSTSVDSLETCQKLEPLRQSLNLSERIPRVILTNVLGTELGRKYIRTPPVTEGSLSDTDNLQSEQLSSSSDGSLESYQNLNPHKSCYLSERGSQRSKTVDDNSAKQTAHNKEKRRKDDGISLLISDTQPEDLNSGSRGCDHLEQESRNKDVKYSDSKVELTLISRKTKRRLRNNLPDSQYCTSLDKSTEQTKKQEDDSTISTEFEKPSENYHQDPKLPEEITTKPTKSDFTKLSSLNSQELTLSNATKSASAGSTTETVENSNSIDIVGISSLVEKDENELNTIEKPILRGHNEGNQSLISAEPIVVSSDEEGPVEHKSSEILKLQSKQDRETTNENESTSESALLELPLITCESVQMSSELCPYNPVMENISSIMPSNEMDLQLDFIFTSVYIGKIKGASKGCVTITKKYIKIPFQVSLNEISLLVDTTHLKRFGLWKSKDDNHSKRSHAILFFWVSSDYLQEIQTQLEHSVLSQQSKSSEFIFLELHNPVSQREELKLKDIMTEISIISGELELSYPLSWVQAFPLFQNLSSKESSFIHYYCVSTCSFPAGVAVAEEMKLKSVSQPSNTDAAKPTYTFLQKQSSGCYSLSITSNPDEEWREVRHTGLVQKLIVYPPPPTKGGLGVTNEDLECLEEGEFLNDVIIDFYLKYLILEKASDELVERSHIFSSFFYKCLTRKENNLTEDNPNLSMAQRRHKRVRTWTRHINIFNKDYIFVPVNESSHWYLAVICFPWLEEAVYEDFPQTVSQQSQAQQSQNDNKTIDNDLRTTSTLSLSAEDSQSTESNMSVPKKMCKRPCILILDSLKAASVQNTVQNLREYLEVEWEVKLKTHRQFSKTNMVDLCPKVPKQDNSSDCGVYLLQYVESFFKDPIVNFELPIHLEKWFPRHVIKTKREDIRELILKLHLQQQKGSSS
The test can be described thus: inhibition of human SENP7 cleavage activity – biochemical, luminescence, SAR follow-up (AID 504497). It counts as functional.

Test [13] has as its target T7, Sentrin-specific protease 6 (Homo sapiens, UniProt Q9GZR1).
T7 sequence (Q9GZR1 whole entry): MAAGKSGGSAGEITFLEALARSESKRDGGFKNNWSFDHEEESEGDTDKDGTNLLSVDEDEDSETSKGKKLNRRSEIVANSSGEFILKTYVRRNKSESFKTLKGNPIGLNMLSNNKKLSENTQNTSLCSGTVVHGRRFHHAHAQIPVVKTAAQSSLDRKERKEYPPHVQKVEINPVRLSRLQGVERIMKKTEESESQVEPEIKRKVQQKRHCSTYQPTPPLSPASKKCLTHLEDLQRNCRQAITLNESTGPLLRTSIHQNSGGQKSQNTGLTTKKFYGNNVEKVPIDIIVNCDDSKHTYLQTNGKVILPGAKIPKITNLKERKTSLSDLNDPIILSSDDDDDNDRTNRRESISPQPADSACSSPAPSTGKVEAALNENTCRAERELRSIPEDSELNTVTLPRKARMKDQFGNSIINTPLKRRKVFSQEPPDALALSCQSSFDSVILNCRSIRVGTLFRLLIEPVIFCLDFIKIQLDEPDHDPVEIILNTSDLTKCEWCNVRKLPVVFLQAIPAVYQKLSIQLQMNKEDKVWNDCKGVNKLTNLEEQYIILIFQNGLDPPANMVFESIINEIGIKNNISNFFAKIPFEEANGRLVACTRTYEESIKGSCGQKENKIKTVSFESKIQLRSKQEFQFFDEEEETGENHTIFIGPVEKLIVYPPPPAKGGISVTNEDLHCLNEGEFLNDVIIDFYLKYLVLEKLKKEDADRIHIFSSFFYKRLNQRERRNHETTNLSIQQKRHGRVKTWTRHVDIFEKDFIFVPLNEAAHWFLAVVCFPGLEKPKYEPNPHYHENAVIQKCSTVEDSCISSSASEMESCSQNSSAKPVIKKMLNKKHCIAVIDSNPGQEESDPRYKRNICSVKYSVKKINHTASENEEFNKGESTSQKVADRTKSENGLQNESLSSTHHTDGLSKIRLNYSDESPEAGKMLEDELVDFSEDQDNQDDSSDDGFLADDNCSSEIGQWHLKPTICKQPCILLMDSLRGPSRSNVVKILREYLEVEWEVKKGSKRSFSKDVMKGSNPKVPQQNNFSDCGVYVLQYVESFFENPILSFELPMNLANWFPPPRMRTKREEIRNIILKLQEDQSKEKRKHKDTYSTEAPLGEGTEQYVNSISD
The test can be described thus: SAR Analysis of small molecule inhibitors of Sentrin-specific protease 6 (SENP6) using a Luminescent assay. [Related pubchem assays (depositor defined):AID2582, AID2599]. In kind it is functional.

The target of test [14] is T4, Caspase-3. Kind of test: SAR Analysis of small molecule inhibitors of Sentrin-specific proteases (SENPs) using a Caspase-3 Selectivity assay. [Related pubchem assays (depositor defined):AID2540, AID2599, AID434973, AID489001]. It counts as functional.
In test [15] the target is T6, Sentrin-specific protease 7. It counts as functional.
Test [16] has as its target T3, Sentrin-specific protease 8. It counts as functional.
Test [17] has as its target T7, Sentrin-specific protease 6. It counts as functional.
A further test concerns the target Nonstructural protein 1 (Influenza A virus, UniProt Q194T2). In kind it is functional, Influenza A virus (A/California/07/2009(H1N1)).

Calls of active or inactive are those of the source.

Beta-galactosidase, sequence (Q8VNN2 whole entry): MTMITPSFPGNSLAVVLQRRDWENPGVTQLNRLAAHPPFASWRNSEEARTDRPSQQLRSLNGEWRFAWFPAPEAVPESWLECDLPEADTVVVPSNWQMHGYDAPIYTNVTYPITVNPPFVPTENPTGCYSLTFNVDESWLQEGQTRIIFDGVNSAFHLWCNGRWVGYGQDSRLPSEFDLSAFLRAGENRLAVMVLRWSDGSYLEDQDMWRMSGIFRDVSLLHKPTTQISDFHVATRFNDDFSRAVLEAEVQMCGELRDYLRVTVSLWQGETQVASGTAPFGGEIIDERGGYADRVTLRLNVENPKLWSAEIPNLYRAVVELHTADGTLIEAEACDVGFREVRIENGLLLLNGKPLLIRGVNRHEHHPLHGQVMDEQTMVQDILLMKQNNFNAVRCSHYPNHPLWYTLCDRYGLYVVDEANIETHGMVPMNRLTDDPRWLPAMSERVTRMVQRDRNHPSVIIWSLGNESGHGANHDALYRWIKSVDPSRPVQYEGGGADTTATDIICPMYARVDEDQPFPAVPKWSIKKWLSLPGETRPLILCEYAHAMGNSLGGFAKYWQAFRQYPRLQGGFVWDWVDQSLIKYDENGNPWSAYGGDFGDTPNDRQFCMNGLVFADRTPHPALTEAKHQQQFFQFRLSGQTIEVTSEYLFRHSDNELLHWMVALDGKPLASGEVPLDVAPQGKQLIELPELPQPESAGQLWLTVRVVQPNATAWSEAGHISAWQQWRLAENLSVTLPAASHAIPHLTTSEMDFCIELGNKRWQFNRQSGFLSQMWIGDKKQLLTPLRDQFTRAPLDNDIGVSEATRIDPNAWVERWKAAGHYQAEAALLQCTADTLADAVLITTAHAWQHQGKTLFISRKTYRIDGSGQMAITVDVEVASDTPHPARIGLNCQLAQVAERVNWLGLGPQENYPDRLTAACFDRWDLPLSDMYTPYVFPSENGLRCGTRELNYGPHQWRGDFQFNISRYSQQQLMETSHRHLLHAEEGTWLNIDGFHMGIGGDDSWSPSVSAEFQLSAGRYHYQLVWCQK
Induced myeloid leukemia cell differentiation protein Mcl-1, sequence (Q07820 whole entry): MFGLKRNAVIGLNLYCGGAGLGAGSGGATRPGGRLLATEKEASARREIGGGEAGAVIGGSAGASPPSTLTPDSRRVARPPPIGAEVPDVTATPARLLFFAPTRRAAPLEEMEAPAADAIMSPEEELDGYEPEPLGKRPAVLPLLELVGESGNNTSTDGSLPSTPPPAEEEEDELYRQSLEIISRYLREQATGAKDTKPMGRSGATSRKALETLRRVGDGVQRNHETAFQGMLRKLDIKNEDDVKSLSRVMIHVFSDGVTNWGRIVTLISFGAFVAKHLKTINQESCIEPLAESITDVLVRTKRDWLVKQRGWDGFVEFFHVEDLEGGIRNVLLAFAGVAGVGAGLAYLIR
Nonstructural protein 1, sequence (Q194T2 whole entry): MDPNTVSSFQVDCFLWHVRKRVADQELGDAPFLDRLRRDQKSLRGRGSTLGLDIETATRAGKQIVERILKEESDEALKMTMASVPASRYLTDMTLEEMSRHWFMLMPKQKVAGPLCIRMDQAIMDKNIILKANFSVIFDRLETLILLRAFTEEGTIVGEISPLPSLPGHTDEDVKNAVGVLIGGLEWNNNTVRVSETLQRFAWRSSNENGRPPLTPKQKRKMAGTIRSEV
Phospholipase A2, sequence (P04054 whole entry): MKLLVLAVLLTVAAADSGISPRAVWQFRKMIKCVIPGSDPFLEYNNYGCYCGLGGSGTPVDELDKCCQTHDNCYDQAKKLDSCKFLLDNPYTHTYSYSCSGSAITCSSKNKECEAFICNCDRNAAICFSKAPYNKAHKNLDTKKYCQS

As for `N#Cc1c(O)ncc(/C=N/N=C/c2ccccc2)c1Nc1ccccc1`, the IC50 at Beta-galactosidase was > 80 µM (inactive).

`COc1ccc(C(=O)Nc2nnc(C3=COCCO3)o2)cc1`: the half-maximal activity concentration (AC50) in test [1] is 107 µM (active). In addition, in the test “cells [2]”, the IC50 was 5.45 µM (active).

In the case of `COc1ccc2cc(C(N)=O)/c(=N/c3ccccc3)oc2c1`, the IC50 in test [3] is > 10 µM (inactive).

Regarding `COc1cc(C(c2nnnn2C2CCCC2)N2CCc3ccccc3C2)ccc1O` (stereo unspecified), the EC50 in [4] is 0.496 µM (active); in “cells [5]” it was > 29.9 µM (inactive). Also, the IC50 in the test “cells [6]” is > 29.9 µM (inactive); in test [7], 12.8 µM (active); in test [8], 1.33 µM (active).

With `COc1ccc(C2=NN(C(=O)CSc3cn(C)c4ccccc34)C(c3ccc(OC)cc3)C2)cc1` (stereo unspecified), the IC50 at Beta-galactosidase was > 80 µM (inactive). Moreover, the CC50 in test [9] is 30.2 µM (active).

As for `CC(C)(C)c1ccc2c(c1)C(=O)c1ccccc1C2=O`, the IC50 was 1.12 µM (active) in test [10]; > 100 µM (inactive) on Caspase-3 [11]; 6.46 µM (active) at Phospholipase A2; 9.47 µM (active) at Cysteine protease ATG4B; 0.635 µM (active) in test [12]; 0.927 µM (active) in test [13]. In addition, the IC50 at Caspase-3 [14] was 0.934 µM (active); in [15], > 100 µM (inactive); in test [16], > 100 µM (inactive); in test [17], 4.05 µM (active).

In the case of `Cc1cc(=O)oc2cc(OCC(=O)N3CCCC3)ccc12`, the IC50 in [3] is 2.54 µM (active).

Take `c1ccc(CNCCN2CCNCC2)nc1`: in test [1], the AC50 was 121 µM (active). For the same compound, the IC50 on Nonstructural protein 1 is 7.87 µM (active).

As for `COc1cc(OC)c(C(=O)OCC(=O)Nc2nnc(-c3ccccc3)o2)cc1OC`, the half-maximal activity concentration (AC50) in [1] was 112 µM (active).

Regarding `O=C(NCCc1ccccc1)c1ccc([N+](=O)[O-])cc1`, the concentration giving a half-maximal response (EC50) in [4] is 2.32 µM (active); in “cells [5]”, > 29.9 µM (inactive). Further, the IC50 was > 29.9 µM (inactive) in the test “cells [6]” and 7.32 µM (active) in [8].

On to `CC(Oc1ccc2c(c1)oc(=O)c1ccccc12)C(=O)NCCCN1CCOCC1` (stereo unspecified), for which, in test [3], the IC50 was 1.5 µM (active).

With `O=C(c1cc2cc(Cl)ccc2[nH]1)N1CCN(c2ccccc2F)CC1`, the IC50 on Beta-galactosidase is > 80 µM (inactive).

Usually IC50 stands for the midpoint of a concentration-inhibition curve. The AC50 is the concentration at which the activity in the assay is half-maximal. For orientation: EC50 means the concentration that produces a half-maximal response. Usually CC50 stands for the concentration at which the toxic effect on the cells reaches its halfway point.

For the origin of these results see ChEMBL document CHEMBL1201862, “PubChem BioAssay data set” (2004).
